Test results published in PubChem BioAssay (NCI).
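How tested: cells in 96-well plates exposed to compound for 48 hours at five concentrations. The concentration for 50% growth inhibition is given as GI50. At the TGI there is no net growth.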

Key:
Test in all cases: DTP human tumour cell line panel, 48 h
TK-10 renal = test system: TK-10 renal
MALME-3M melanoma = test system: MALME-3M melanoma
NCI/ADR-RES ovarian = test system: NCI/ADR-RES ovarian
PC-3 prostate = test system: PC-3 prostate
NCI-H460 lung = test system: NCI-H460 lung
MCF7 breast = test system: MCF7 breast
MDA-MB-231 breast = test system: MDA-MB-231 breast
A549 NSCLC = test system: A549 NSCLC
SNB-75 CNS = test system: SNB-75 CNS
DU-145 prostate = test system: DU-145 prostate

Structure (SMILES)	GI50 (TK-10 renal) [µM]	TGI (TK-10 renal) [µM]	GI50 (MALME-3M melanoma) [µM]	TGI (MALME-3M melanoma) [µM]	GI50 (NCI/ADR-RES ovarian) [µM]	TGI (NCI/ADR-RES ovarian) [µM]	GI50 (PC-3 prostate) [µM]	TGI (PC-3 prostate) [µM]	GI50 (NCI-H460 lung) [µM]	TGI (NCI-H460 lung) [µM]	GI50 (MCF7 breast) [µM]	TGI (MCF7 breast) [µM]	GI50 (MDA-MB-231 breast) [µM]	TGI (MDA-MB-231 breast) [µM]	GI50 (A549 NSCLC) [µM]	TGI (A549 NSCLC) [µM]	GI50 (SNB-75 CNS) [µM]	TGI (SNB-75 CNS) [µM]	GI50 (DU-145 prostate) [µM]	TGI (DU-145 prostate) [µM]
Cc1ncnc2c1ccn2[C@@H]1C[C@H](Oc2cc(C(F)F)c(F)c3c2CNCC3)[C@@H](O)[C@H]1O	> 100	> 100	> 100	> 100	> 100	> 100	> 100	> 100	> 100	> 100	> 100	> 100	> 100	> 100	> 100	> 100	> 100	> 100	> 100	> 100
CN(C)Cc1ccc(O)c(CN(C)C)n1		> 100		> 100		> 100		> 100		> 100		> 100		> 100		> 100		> 100		> 100
CCNCCS(=O)(=O)NC[C@@]1(c2ccccc2)SC(NC(=O)C(C)(C)C)=NN1C(=O)C(C)(C)C	19.3	> 100	10.6	30.2	4.11	> 45.8	< 0.01	> 100	< 0.01	> 41.9	< 0.01	> 100	< 0.01	28.1	< 0.01	> 100	< 0.0137	> 73.8	< 0.0159	> 100
Cc1c(Br)c(Br)c2c3c1nc(N1CCNCC1)n3CCC2	1.56	3.12	1.85	3.41	1.8	3.82	1.04	2.25	1.7	3.22	1.75	3.49	1.36	2.74	1.87	4.01	1.96	4.1	1.67	3.05
Cc1cc(NS(=O)(=O)c2ccc(-c3cnc(C4CC4)o3)cc2)ccc1Cl	1.11	16	12.1	26.5	0.181	12.5	0.272	15.3	0.297	11.1	0.0708	12.2	0.794	12.2	0.437	14.9	0.12	0.643	0.455	15.1
Cn1cc(Nc2nccc(-c3ccc4c(c3)CN(C3COC3)CC[C@H]4NC(=O)c3cn(C(C)(C)C)nn3)n2)cn1	59.5	> 100	38	> 100	> 100	> 100	> 100	> 100	85.9	> 100	41.4	> 100	77.3	> 100	86.8	> 100	24.4	> 100	> 100	> 100
CC(C)(Oc1cccc(N2CCC[C@@H](C(=O)N(Cc3ccc(-c4cn[nH]c4)cc3)C3CC3)C2)c1)C(=O)N1CCNCC1	14.8	28.4	11.8	24.5	24.1	73.6	13.6	39.1	12.3	27.2	11.6	25.4	14.8	29.7	14.1	32.2	1.56	18.3	14.5	28
C/C(=N\O)C1CC(CC(=O)O)C1(C)C (stereo not given)		> 100		> 100		> 100		> 100		> 100		> 100		> 100		> 100		> 100		> 100
CCN(CC)CCOc1ccc(/C(=C(\C)Cc2ccc(OC)cc2)c2ccc(O)cc2)cc1	1.82	3.68	1.73	3.28	2.43	7.74	1.54	3.26	1.86	3.68	0.145	2.3	1.71	3.26	1.83	3.56	1.58	3.38	2.14	5
O=C(Nc1nc2ccc(OC(F)(F)F)cc2s1)c1ccc(F)cc1	4.06	> 100	2.93	8.06	3.35	16.4	2.81	8.7	3.02	20.7	2.12	18.2	3.3	18.9	3.51	> 100	3.45	53.9	3.44	> 100
